Key:
morphine dependent mice = test: Opioid withdrawal assay in morphine-pelleted mice; assay type: in vivo; details: morphine-pelleted mice; s.c.
morphine antinociception = test: Warm-water tail flick assay, antagonism of morphine antinociception; assay type: in vivo; details: antagonizing morphine (10 mg/kg) antinociception; s.c.; six mice

Question: With `C=CCN1CC[C@]23c4c5ccc(O)c4O[C@H]2C(=O)CC[C@@]3(O)[C@H]1C5` [Naloxone, naloxone, reference compound] as the molecule, how does the “Precipitated withdrawal symptoms, overall comparison” value (morphine dependent mice) read?
Answer: The value was “even more significant syndrome”.

Question: What about the “AD50 values (mg/kg (95% CL))” value (morphine antinociception) of the same molecule?
Answer: Its value is 0.05 (0.03-0.09) mg/kg.

— publication PMC4373589 (Journal of medicinal chemistry, 2013)
